Measured values: the supplement of paper PMC10883282
± gives the standard deviation of the averaged measurements.

Columns and labels:
Test in all cases: relative viability vs DMSO control (72 h) (fraction); higher = more viable cells
[1] = test system: KHOS-240S
In short: (§1)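 After seeding at densities set for 80–90% confluence in 384-well plates, sarcoma cell lines waited 24 h before 2.5 µl of serially diluted compound was added. Source plates held 10 mM down to 0.0002 mM. Plates were incubated 72 h at 37 °C with 5% CO2, with 0.1% DMSO vehicle and a 5 µM positive control, and relative viability was taken from ATPLite as percent growth averaged over up to triplicate wells, with 1 set as full and 0 as none.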

[2] = test system: RD-ES
In short: as §1

[3] = test system: RD
In short: as §1

[4] = test system: SK-ES-1
In short: as §1

[5] = test system: SW982
In short: as §1

CCN1CCN(c2ccc(Nc3cc(N(C)C(=O)Nc4c(Cl)c(OC)cc(OC)c4Cl)ncn3)cc2)CC1 [Infigratinib]
relative viability
Conditions	[1]	[2]	[3]	[4]	[5]
85 pM	1.058 ± 0.0077	0.972 ± 0.033	1.07 ± 0.038	1.03 ± 0.039	1.01 ± 0.057
0.000254 µM	1.11 ± 0.034	0.95 ± 0.019	1.06 ± 0.028	1.07 ± 0.04	1.07 ± 0.032
0.00076 µM	1.08 ± 0.031	0.965 ± 0.037	1.11 ± 0.014	1 ± 0.03	1.02 ± 0.024
0.00229 µM	1.06 ± 0.027	0.998 ± 0.014	1.13 ± 0.027	1.06 ± 0.019	1.05 ± 0.021
0.00686 µM	1.06 ± 0.025	0.981 ± 0.037	1.14 ± 0.048	1.03 ± 0.04	1.05 ± 0.048
0.02058 µM	0.986 ± 0.017	0.959 ± 0.012	1.12 ± 0.068	1.01 ± 0.027	1.05 ± 0.026
0.0617 µM	0.926 ± 0.036	0.957 ± 0.017	1.12 ± 0.084	0.971 ± 0.036	1.07 ± 0.042
0.1852 µM	0.932 ± 0.068	0.959 ± 0.021	1.14 ± 0.12	0.929 ± 0.06	1.061 ± 0.008
0.5556 µM	0.907 ± 0.043	0.928 ± 0.025	1.12 ± 0.071	0.797 ± 0.0085	0.98 ± 0.027
1.6667 µM	0.874 ± 0.066	0.802 ± 0.018	1.13 ± 0.072	0.559 ± 0.0091	0.78 ± 0.041
5 µM	0.835 ± 0.015	0.783 ± 0.014	1.11 ± 0.1	0.373 ± 0.0076	0.732 ± 0.0075

O=C(/C=C\n1cnc(-c2cc(C(F)(F)F)cc(C(F)(F)F)c2)n1)NNc1cnccn1 [Selinexor]
relative viability
Conditions	[1]	[2]	[3]	[4]	[5]
0.00017 µM	1.08 ± 0.024	0.988 ± 0.038	1.052 ± 0.0073	1.05 ± 0.069	1.06 ± 0.043
0.00051 µM	1.11 ± 0.029	1.02 ± 0.035	1.08 ± 0.03	1.06 ± 0.027	1.07 ± 0.051
0.00152 µM	1.08 ± 0.058	0.993 ± 0.035	1.09 ± 0.043	1.04 ± 0.027	1.08 ± 0.0098
0.00457 µM	1.08 ± 0.012	0.972 ± 0.025	1.07 ± 0.029	1.05 ± 0.056	1.07 ± 0.025
0.01372 µM	1.07 ± 0.039	0.949 ± 0.024	1.01 ± 0.041	0.953 ± 0.026	1.08 ± 0.029
0.04115 µM	0.845 ± 0.047	0.825 ± 0.019	0.943 ± 0.081	0.515 ± 0.013	0.918 ± 0.08
0.1235 µM	0.511 ± 0.01	0.705 ± 0.022	0.754 ± 0.013	0.0598 ± 0.0042	0.53 ± 0.017
0.3704 µM	0.249 ± 0.029	0.602 ± 0.014	0.51007 ± 0.00012	0.014 ± 0.0012	0.292 ± 0.023
1.111 µM	0.188 ± 0.012	0.5 ± 0.022	0.404 ± 0.0056	0.0115 ± 0.00044	0.211 ± 0.019
3.333 µM	0.0642 ± 0.0041	0.3989 ± 0.0033	0.304 ± 0.0051	0.0084 ± 0.00046	0.161 ± 0.0021
10 µM	0.0639 ± 0.011	0.334 ± 0.021	0.252 ± 0.0069	0.013 ± 0.0011	0.177 ± 0.0064
